Like-named read-outs stand apart in the source and are kept apart here.
Key:
pY641-STAT6 in PBMC = target: T1, pY641-STAT6 in PBMC (Homo sapiens, UniProt P42226); assay: MSD-pSTAT-PBMC Assay (pSTAT6, IL-4 stimulated); type: cell-based; details: compound 3 hrs, then 1 ng/mL IL-4 for 10 min
T1 construct: Cryopreserved Peripheral Blood Mononuclear Cells (PBMC) are from AllCells; host or cells: cryopreserved PBMC
T1 sequence (P42226 1-847): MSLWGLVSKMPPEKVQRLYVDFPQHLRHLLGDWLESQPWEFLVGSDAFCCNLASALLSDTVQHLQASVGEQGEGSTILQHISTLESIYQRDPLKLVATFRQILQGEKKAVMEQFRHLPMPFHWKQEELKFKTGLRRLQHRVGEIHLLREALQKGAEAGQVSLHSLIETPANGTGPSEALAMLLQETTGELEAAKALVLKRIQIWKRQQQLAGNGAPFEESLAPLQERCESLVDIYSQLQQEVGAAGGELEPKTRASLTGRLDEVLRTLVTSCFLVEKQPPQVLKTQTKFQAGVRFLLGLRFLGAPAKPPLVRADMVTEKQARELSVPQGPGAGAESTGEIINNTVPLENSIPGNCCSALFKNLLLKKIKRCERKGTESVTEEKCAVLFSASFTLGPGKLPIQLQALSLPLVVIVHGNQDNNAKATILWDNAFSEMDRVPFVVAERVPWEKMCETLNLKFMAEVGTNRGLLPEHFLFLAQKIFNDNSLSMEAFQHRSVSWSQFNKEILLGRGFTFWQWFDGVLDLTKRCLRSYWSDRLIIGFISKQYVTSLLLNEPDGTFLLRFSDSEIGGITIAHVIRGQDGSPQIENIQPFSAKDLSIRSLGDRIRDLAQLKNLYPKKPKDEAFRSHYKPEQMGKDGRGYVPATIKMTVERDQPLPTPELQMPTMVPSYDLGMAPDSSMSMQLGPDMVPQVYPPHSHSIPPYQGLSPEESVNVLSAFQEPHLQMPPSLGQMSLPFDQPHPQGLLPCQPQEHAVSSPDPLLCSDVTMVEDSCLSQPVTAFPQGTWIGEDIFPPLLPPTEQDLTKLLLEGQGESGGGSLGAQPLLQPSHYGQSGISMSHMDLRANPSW
How it was run: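 Thawed human PBMC rested overnight in IMDM/10% FBS, then got compound for 3 hrs before a 10 min cytokine pulse: 1 ng/mL IL-4 for pSTAT6, 10 ng/mL IL-6 for pSTAT3. Lysates went to MSD sandwich capture on total STAT6 or STAT3 with phospho-specific detection. IC50 came from background-subtracted, DMSO-normalized signal.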

pY705-STAT3 in PBMC = target: T2, pY705-STAT3 in PBMC (Homo sapiens, UniProt P40763); assay: MSD-pSTAT-PBMC Assay (pSTAT3, IL-6 stimulated); type: cell-based; details: PBMC, compound 3 hrs, then 10 ng/mL IL-6 for 10 min
T2 construct: Cryopreserved Peripheral Blood Mononuclear Cells (PBMC) are from AllCells; host or cells: cryopreserved PBMC
T2 sequence (P40763 whole entry): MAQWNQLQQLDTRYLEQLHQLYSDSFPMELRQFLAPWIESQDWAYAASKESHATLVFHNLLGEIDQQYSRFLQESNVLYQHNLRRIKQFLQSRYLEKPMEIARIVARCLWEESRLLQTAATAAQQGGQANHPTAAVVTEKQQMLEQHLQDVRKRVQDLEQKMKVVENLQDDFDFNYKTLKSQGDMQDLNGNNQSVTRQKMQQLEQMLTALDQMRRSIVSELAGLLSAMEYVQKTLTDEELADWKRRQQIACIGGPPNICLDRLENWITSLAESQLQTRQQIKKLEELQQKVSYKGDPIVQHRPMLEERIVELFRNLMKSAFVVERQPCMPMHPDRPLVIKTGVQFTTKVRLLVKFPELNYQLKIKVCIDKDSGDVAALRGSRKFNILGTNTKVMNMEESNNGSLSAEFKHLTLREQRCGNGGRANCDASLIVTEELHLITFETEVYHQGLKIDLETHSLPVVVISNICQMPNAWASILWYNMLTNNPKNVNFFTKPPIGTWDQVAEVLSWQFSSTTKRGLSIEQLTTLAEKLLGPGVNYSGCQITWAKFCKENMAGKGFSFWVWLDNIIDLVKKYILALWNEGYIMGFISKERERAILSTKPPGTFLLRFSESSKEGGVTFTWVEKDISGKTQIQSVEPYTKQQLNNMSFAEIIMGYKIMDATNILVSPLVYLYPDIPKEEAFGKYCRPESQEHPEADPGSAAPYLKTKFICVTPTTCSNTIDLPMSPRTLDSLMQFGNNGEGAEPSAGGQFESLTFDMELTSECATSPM
How it was run: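 pY705-STAT3 was detected electrochemiluminescently on total-STAT3 capture plates, using lysates of human PBMCs given compound for 3 h and then IL-6 (10 ng/mL, 10 min). Values were background-subtracted against unstimulated wells and set relative to DMSO. IC50 was fitted with variable slope.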

[1] = PBMC, Table 1114, read-out: pSTAT6

IC50 (pY641-STAT6 in PBMC; [1]) [nM]	IC50 (pY705-STAT3 in PBMC; Table 1114, read-out: pSTAT3) [nM]	Compound	IC50 (pY641-STAT6 in PBMC; STAT6, PBMC, Table 115) [nM]	IC50 (pY705-STAT3 in PBMC; Table 115, read-out: STAT3) [nM]	further results
		CCCOC(=O)[C@H](C)NP(=O)(Oc1ccccc1)[C@H](F)c1ccc2sc(C(=O)N[C@H]3CCC[C@H]4CC[C@@H](C(=O)N5CC(c6cnccc6N(C)C)C5)N4C3=O)cc2c1 (single isomer, unassigned) [Compound 954]	> 3000	< 100	
100 to 1000	> 3000	CC(C)CC(=O)SCCOP(=O)(OCCSC(=O)CC(C)C)C(F)(F)c1ccc2sc(C(=O)N[C@H]3C[C@@H](O)CC[C@H]4CC[C@@H](C(=O)N5C[C@@H](C#N)[C@H](c6ccccc6)C5)N4C3=O)cc2c1 (single isomer, unassigned) [Compound 135, S,S′-(((((2-(((3S,6S,8S,10aR)-3-((3S,4R or 3R,4S)-3-cyano-4-phenylpyrrolidine-1-carbonyl)-8-hydroxy-5-oxodecahydro-pyrrolo[1,2-a]azocin-6-yl)carbamoyl)benzo[b]thiophen-5-yl)difluoromethyl)phosphoryl)bis(oxy))bis (ethane-2,1-diyl)) bis(3-methylbutane-thioate)]			
		CCCOC(=O)[C@H](C)N[P@](=O)(Oc1ccccc1)[C@H](F)c1ccc2sc(C(=O)N[C@H]3CCC[C@H]4CC[C@@H](C(=O)N5CC(c6cnccc6N6CCOCC6)C5)N4C3=O)cc2c1 (single isomer, unassigned) [Compound 1045]	> 3000	< 100	
> 3000	< 100	CC(C)(C)C(=O)SCCOP(=O)(OCCSC(=O)C(C)(C)C)C(F)(F)c1ccc2sc(C(=O)N[C@H]3CCC4(CC4)C[C@H]4CC[C@@H](C(=O)N5CC(c6cccnc6)C5)N4C3=O)cc2c1 [Compound 132, S,S′-((((difluoro(2-(((3′S,6′S,10a′R)-5′-oxo-3′-(3-(pyridin-3-yl)azetidine-1-carbonyl)octahydro-1′H-spiro [cyclopropane-1,9′-pyrrolo[1,2-a]azocin]-6′-yl)carbamoyl)benzo[b]thiophen-5-yl)methyl)phosphoryl)bis (oxy))bis(ethane-2,1-diyl))bis(2,2-dimethylpropane-thioate)]			
		CCCOC(=O)[C@H](C)NP(=O)(Oc1ccccc1)[C@@H](F)c1ccc2sc(C(=O)N[C@H]3CCCC[C@H]4CC[C@@H](C(=O)N5C[C@@H](c6ccccc6)[C@H](C#N)C56CC6)N4C3=O)cc2c1 (stereo partly drawn) [Compound 380, propyl (((R)-(2-(((3S,6S,10aS)-3-((6R,7S)-7-cyano-6-phenyl-4-azaspiro[2.4]heptane-4-carbonyl)-5-oxodecahydropyrrolo [1,2-a]azocin-6-yl)carbamoyl)benzo [b]thiophen-5-yl)fluoromethyl) (phenoxy)phosphoryl)-L-alaninate]	< 100	> 3000	
> 3000	< 100	CC(C)(C)C(=O)SCCOP(=O)(OCCSC(=O)C(C)(C)C)C(F)(F)c1ccc2sc(C(=O)N[C@H]3CCCC[C@H]4CC[C@@H](C(=O)N5CC(c6cccnc6)C5)N4C3=O)cc2c1 [Compound 181, S,S′-((((difluoro(2-(((3S,6S,10aS)-5-oxo-3-(3-(pyridin-3-yl)azetidine-1-carbonyl)decahydro-pyrrolo[1,2-a]azocin-6-yl)carbamoyl)benzo[b]thiophen-5-yl)methyl)phosphoryl)bis(oxy))bis(ethane-2,1-diyl)) bis(2,2-dimethylpropanethioate)]			
		CCCCOC(=O)[C@H](C)NP(=O)(Cc1ccc2ccc(C(=O)N[C@H]3CCCC[C@H]4CC[C@@H](C(=O)N5CC(c6ccccc6)CC56CC6)N4C3=O)cc2c1)Oc1ccccc1 (stereo partly drawn) [Compound 405, butyl (((7-(((3S,6S,10aS)-5-oxo-3-(6-phenyl-4-azaspiro[2.4]heptane-4-carbonyl)decahydropyrrolo[1,2-a]azocin-6-yl)carbamoyl)naphthalen-2-yl)methyl)(phenoxy)phosphoryl)-L-alaninate]	1000 to 3000	> 3000	
		COCC(=O)SCCOP(=O)(OCCSC(=O)COC)C(F)(F)c1ccc2sc(C(=O)N[C@H]3CCC[C@H]4CC[C@@H](C(=O)N5CC(c6cccnc6)C5)N4C3=O)cc2c1 [Compound 1011, S,S′-((((difluoro(2-(((3S,6S,9aS)-5-oxo-3-(3-(pyridin-3-yl)azetidine-1-carbonyl)octahydro-1H-pyrrolo[1,2-a]azepin-6-yl)carbamoyl)benzo [b]thiophen-5-yl)methyl)phosphoryl)bis(oxy))bis(ethane-2,1-diyl)) bis(2-methoxyethanethioate)]		< 100	IC50 (pY641-STAT6 in PBMC; PBMC, Table 115, read-out: STAT6): 100 to 1000 nM
< 100	100 to 1000	CC(C)(C)C(=O)OCOP(=O)(OCOC(=O)C(C)(C)C)C(F)(F)c1ccc2ccc(C(=O)N[C@H]3CCCC[C@H]4CC[C@@H](C(=O)N5C[C@H](c6ccccc6)[C@@H](C#N)C5)N4C3=O)cc2c1 (relative stereo) [Compound 194, ((((7-(((3S,6S,10aS)-3-(rel-(trans)-3-cyano-4-phenyl-pyrrolidine-1-carbonyl)-5-oxodecahydro-pyrrolo[1,2-a]azocin-6-yl)carbamoyl)naphthalen-2-yl)difluoro-methyl)phos-phoryl)bis(oxy)) bis(methylene) bis(2,2-dimethyl-propanoate)]			
		CCCOC(=O)[C@H](C)N[P@](=O)(Oc1ccccc1)[C@@H](F)c1ccc2sc(C(=O)N[C@H]3CCC[C@H]4CC[C@@H](C(=O)N5CC(c6cnccc6N(C)C)C5)N4C3=O)cc2c1 (single isomer, unassigned) [Compound 941]	1000 to 3000	< 100	
		CCC(CC)COC(=O)[C@H](C)NP(=O)(Cc1ccc2ccc(C(=O)N[C@H]3CCCC[C@H]4CC[C@@H](C(=O)N5CC(c6ccccc6)CC56CC6)N4C3=O)cc2c1)Oc1ccccc1 (stereo partly drawn) [Compound 404, 2-ethylbutyl (((7-(((3S,6S,10aS)-5-oxo-3-(6-phenyl-4-azaspiro[2.4]heptane-4-carbonyl)decahydropyrrolo[1,2-a]azocin-6-yl)carbamoyl)naphthalen-2-yl)methyl)(phenoxy)phosphoryl)-L-alaninate]	1000 to 3000	> 3000	

Compound	IC50 (pY641-STAT6 in PBMC; [1]) [nM]	IC50 (pY705-STAT3 in PBMC; Table 1114, read-out: pSTAT3) [nM]	IC50 (pY641-STAT6 in PBMC; STAT6, PBMC, Table 115) [nM]	IC50 (pY705-STAT3 in PBMC; Table 115, read-out: STAT3) [nM]	further results
S-(2- (((difluoro(2- (((3S,6S,9aS)-3-(3-((S- methylsulfonimidoyl) methyl)azetidine-1- carbonyl)-5- oxooctahydro-1H- pyrrolo[1,2-a]azepin-6- yl)carbamoyl)benzo[b] thiophen-5-yl)methyl) (((3-methylbutanoyl) thio)methoxy) phosphoryl)oxy)ethyl) 3-methylbutane thioate [Compound 178]	> 3000	100 to 1000			
CC(C)(C)C(=O)SCCOP(=O)(Oc1cccc(C#N)c1)C(F)(F)c1ccc2sc(C(=O)N[C@H]3CCCC[C@H]4CC[C@@H](C(=O)N5C[C@@H](C#N)[C@H](c6ccccc6)C5)N4C3=O)cc2c1 (single isomer, unassigned) [Compound 137, S-(2-((((2-(((3S,6S,10aS)-3-((3S,4R or 3R,4S)-3-cyano-4-phenylpyrrolidine-1-carbonyl)-5-oxodecahydro-pyrrolo[1,2-a]azocin-6-yl)carbamoyl)benzo[b]thiophen-5-yl)difluoromethyl)(3-cyanophenoxy)phosphoryl)oxy)ethyl)-2,2-dimethylpropane-thioate]		> 3000			IC50 (pY641-STAT6 in PBMC; pSTAT6, PBMC, Table 1114): 100 to 1000 nM
S-(2-((((2- (((3S,6S,9aS)-3-(3-(3- cyanophenyl) azetidine-1-carbonyl)-5- oxooctahydro-1H- pyrrolo[1,2-a]azepin-6- yl)carbamoyl)benzo[b] thiophen-5-yl) difluoromethyl)(((3- methylbutanoyl)thio) methoxy)phosphoryl) oxy)ethyl) 3- methylbutane thioate [Compound 176]	1000 to 3000	< 100			

From patent US20250215029A1 (Recludix Pharma, Inc., priority 2022, published 2025)
